# Laboratory results: patent US11560545B2, “Polymeric carriers and methods” (The Brigham and Women's Hospital, Inc., priority 2017, dated 2023)
# Key:
# hMSCs = assay: cell viability after full digestion with digestion agents; conditions: 0.015 M sodium citrate solutions
# Method: The cell viability was calculated after full digestion due to the concern of potential cytotoxicity from the digestion agents.
# 3T3 fibroblasts = assay: in vitro cytotoxicity by MTT assay; format: cell-based
# [1] = test system: human mesenchymal stem cells (hMSC); assay: DTT / digestion solution cytotoxicity to hMSC; format: cell-based; conditions: short exposure (<30 minutes), high concentration of DTT (50 mM)
# Method: Also, the DTT cytotoxicity to human mesenchymal stem cells (hMSC) was studied, as depicted at FIG. 3C. […], hMSC presented low viability—80% to 85%—at the high concentration of DTT (50 mM).
Compound,cytotoxicity to hMSCs (hMSCs),cytotoxicity (MTT) (3T3 fibroblasts; 50 mM DTT solution),"cytotoxicity (MTT) (3T3 fibroblasts; low concentration 1 mM, compared to DPBS)","cytotoxicity (MTT) (3T3 fibroblasts; working concentration 10 mM, compared to DPBS)",hMSC tolerance [1]
O=C([O-])CC(O)(CC(=O)[O-])C(=O)[O-].[Na+].[Na+].[Na+] [sodium citrate],certain level of cytotoxicity,–,–,–,–
"O[C@H](CS)[C@H](O)CS (racemic) [DTT, dithiothreitol]",–,significant cytotoxicity,no significant cytotoxicity,no significant cytotoxicity,tolerant
